Consider 21 compounds from patent US20230099344A1, “COMPOUNDS AND METHODS FOR THE TARGETED DEGRADATION OF IRAK-4” (Arvinas Operations, Inc., priority 2021, published 2023).

Usually DC50 stands for the midpoint of the concentration-degradation curve. Higher therefore signals a less potent degrader. A word on the Dmax: it is the largest share of the target that was removed. Read a high Dmax as a fuller loss of target.

The experiment concerns the target T1, IRAK-4 (Homo sapiens, UniProt Q9NWZ3).
T1 sequence (Q9NWZ3 1-460): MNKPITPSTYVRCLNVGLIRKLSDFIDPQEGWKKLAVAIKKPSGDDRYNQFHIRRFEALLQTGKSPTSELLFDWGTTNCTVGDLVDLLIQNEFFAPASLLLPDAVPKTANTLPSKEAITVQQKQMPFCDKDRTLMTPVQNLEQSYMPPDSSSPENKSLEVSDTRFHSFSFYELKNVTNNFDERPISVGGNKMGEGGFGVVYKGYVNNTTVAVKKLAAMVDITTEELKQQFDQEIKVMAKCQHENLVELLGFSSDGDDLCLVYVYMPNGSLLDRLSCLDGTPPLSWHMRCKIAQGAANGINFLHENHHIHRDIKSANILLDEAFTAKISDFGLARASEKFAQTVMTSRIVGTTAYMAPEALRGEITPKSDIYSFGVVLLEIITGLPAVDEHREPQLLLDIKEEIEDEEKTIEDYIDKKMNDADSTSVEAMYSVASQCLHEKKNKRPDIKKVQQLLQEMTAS
The experiment in a line: IRAK-4 ELISA, PBMC degradation. Format: cell-based. Also on record: endogenous in cells; host or cells: PBMC. To be noted: treated overnight. The gist of the method:
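OCI-Ly10 cells (seeded at 1×10^6/ml) or human PBMC (seeded at 2×10^6/ml) were treated with compound on the day of seeding and incubated overnight. Lysates were then assayed for remaining IRAK-4 protein by sandwich ELISA with a matched antibody pair.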

As to `CC(C)Oc1nc2nn(C3CCN(CC4(F)CN(c5ccc6c(c5)C(=O)N(C5CCC(=O)NC5=O)C6=O)C4)CC3)cc2cc1NC(=O)c1cnn2cccnc12` (stereo not drawn) [Example 219], the half-maximal degradation concentration (DC50) fell in the range of 5 to 10 nM; the Dmax lay within 80 to 90%; the “PBMC DC90” value is “C (C represents a DC90 value ≥25.0 nM and <50 nM)”.

Turning to `CC(C)(C)Oc1nc2nn(C3CCN(CC4(F)CN(c5ccc6c(c5)C(=O)N(C5CCC(=O)NC5=O)C6=O)C4)CC3)cc2cc1NC(=O)c1cnn2cccnc12` (stereo not drawn) [Example 220], the DC50 was in the range of 1 to 5 nM; the Dmax is 80 to 90%; the “PBMC DC90” value was “C (C represents a DC90 value ≥25.0 nM and <50 nM)”.

As for `O=C1CCC(N2C(=O)c3cc(F)c(N4CC(CN5CCC(n6cc7cc(NC(=O)c8cnn9cccnc89)c(OCC8CC8)cc7n6)CC5)C4)cc3C2=O)C(=O)N1` (stereo not drawn) [Example 221], the DC50 fell in the range of 1 to 5 nM; the Dmax is less than 70%; the “PBMC DC90” value was “B (B represents a DC90 value ≥10.0 nM and <25.0 nM)”.

`C[C@@H](Oc1cc2nn(C3CCN(CC4(F)CN(c5ccc6c(c5)C(=O)N(C5CCC(=O)NC5=O)C6=O)C4)CC3)cc2cc1NC(=O)c1cnn2cccnc12)C1CC1` (stereo partly drawn) [Example 223]: the 50% degradation concentration (DC50) lay in the range of 1 to 5 nM; the Dmax is 70 to 80%; the “PBMC DC90” value was “C (C represents a DC90 value ≥25.0 nM and <50 nM)”.

On to `O=C1CCC(N2C(=O)c3ccc(N4CC[C@H](N5CCC(n6cc7cc(NC(=O)c8cnn9cccnc89)c(OCC8CC8)cc7n6)CC5)C4)cc3C2=O)C(=O)N1` (stereo partly drawn) [Example 225], for which the DC50 was in the range of 1 to 5 nM; the maximal degradation (Dmax) lay within 80 to 90%; the “PBMC DC90” value is “B (B represents a DC90 value ≥10.0 nM and <25.0 nM)”.

Take `O=C1CCC(N2C(=O)c3ccc(N4CC5(CCC(N6CCC(n7cc8cc(NC(=O)c9cnn%10cccnc9%10)c(OCC9CC9)cc8n7)CC6)CC5)C4)cc3C2=O)C(=O)N1` (stereo not drawn) [Example 227]: the DC50 was 1 to 5 nM, the Dmax lay within 80 to 90% and the “PBMC DC90” value is “A (A represents a DC90 value <10.0 nM)”.

For `CC1(N2CCC(n3cc4cc(NC(=O)c5cnn6cccnc56)c(OCC5CC5)cc4n3)CC2)CN(c2ccc3c(c2)C(=O)N(C2CCC(=O)NC2=O)C3=O)C1` (stereo not drawn) [Example 228], the DC50 lay within 1 to 5 nM; the greatest degradation seen (Dmax) was in the range of 80 to 90%; the “PBMC DC90” value is “C (C represents a DC90 value ≥25.0 nM and <50 nM)”.

Turning to `O=C1CCC(N2C(=O)c3cc(F)c(N4CC(F)(CN5CCC(n6cc7cc(NC(=O)c8cnn9cccnc89)c(OCC8CC8)cc7n6)CC5)C4)cc3C2=O)C(=O)N1` (stereo not drawn) [Example 229], the DC50 was 5 to 10 nM; the Dmax is 80 to 90%; the “PBMC DC90” value was “B (B represents a DC90 value ≥10.0 nM and <25.0 nM)”.

Consider `CC(C)(C1CCN(c2ccc3c(c2)C(=O)N(C2CCC(=O)NC2=O)C3=O)CC1)N1CCC(n2cc3cc(NC(=O)c4cnn5cccnc45)c(OCC4CC4)cc3n2)CC1` (stereo not drawn) [Example 230], for which the half-maximal degradation concentration (DC50) was in the range of 1 to 5 nM, the Dmax was no less than 90% and the “PBMC DC90” value was “D (D represents a DC90 value ≥50 nM)”.

In the case of `O=C1CCC(N2C(=O)c3ccc(N4CC(F)(CN5CCC(n6cc7cc(NC(=O)c8cnn9cccnc89)c(OCC(F)F)cc7n6)CC5)C4)cc3C2=O)C(=O)N1` (stereo not drawn) [Example 232], the 50% degradation concentration (DC50) lay in the range of 1 to 5 nM; the “PBMC DC90” value is “C (C represents a DC90 value ≥25.0 nM and <50 nM)”; the “PBMC Dmax” value was “B (B represents a Dmax value ≥80 and <90)”.

Consider `O=C1CCC(N2C(=O)c3ccc(N4CC(F)(CN5CCC(n6cc7cc(NC(=O)c8cnn9ccc(N%10CCOCC%10)nc89)c(OCC8CC8)cc7n6)CC5)C4)cc3C2=O)C(=O)N1` (stereo not drawn) [Example 233], for which the 50% degradation concentration (DC50) fell in the range of 5 to 10 nM; the maximal degradation (Dmax) is 80 to 90%; the “PBMC DC90” value was “C (C represents a DC90 value ≥25.0 nM and <50 nM)”.

On to `COC1(CN2CCC(n3cc4cc(NC(=O)c5cnn6cccnc56)c(OCC5CC5)cc4n3)CC2)CN(c2ccc3c(c2)C(=O)N(C2CCC(=O)NC2=O)C3=O)C1` (stereo not drawn) [Example 234], for which the DC50 was less than 1 nM, the Dmax was 80 to 90% and the “PBMC DC90” value was “A (A represents a DC90 value <10.0 nM)”.

Turning to `O=C1CCC(N2C(=O)c3ccc(N4CC(CN5CCC(n6cc7cc(NC(=O)c8cnn9cccnc89)c(OCC(F)F)cc7n6)CC5)C4)cc3C2=O)C(=O)N1` (stereo not drawn) [Example 235], the half-maximal degradation concentration (DC50) was less than 1 nM, the maximal degradation (Dmax) was no less than 90% and the “PBMC DC90” value was “A (A represents a DC90 value <10.0 nM)”.

`COc1cc2nn(C3CCN(CC4(F)CN(c5ccc6c(c5)C(=O)N(C5CCC(=O)NC5=O)C6=O)C4)CC3)cc2cc1NC(=O)c1cnn2ccc(N3CCOCC3)nc12` (stereo not drawn) [Example 236]: the DC50 is less than 1 nM, the Dmax is 70 to 80% and the “PBMC DC90” value is reported as “A (A represents a DC90 value <10.0 nM)”.

For `CNc1ccn2ncc(C(=O)Nc3cc4cn(C5CCN(CC6(F)CN(c7ccc8c(c7)C(=O)N(C7CCC(=O)NC7=O)C8=O)C6)CC5)nc4cc3OCC3CC3)c2n1` (stereo not drawn) [Example 237], the 50% degradation concentration (DC50) lay within 1 to 5 nM, the maximal degradation (Dmax) was 70 to 80% and the “PBMC DC90” value is “D (D represents a DC90 value ≥50 nM)”.

With `COc1cc2nn(C3CCN(CC4(F)CN(c5ccc6c(c5)C(=O)N(C5CCC(=O)NC5=O)C6=O)C4)CC3)cc2cc1NC(=O)c1cnn2ccc(C3C[C@H]4C[C@@H]3CO4)nc12` (stereo partly drawn) [Example 238], the 50% degradation concentration (DC50) was 1 to 5 nM; the Dmax lay in the range of 70 to 80%; the “PBMC DC90” value was “B (B represents a DC90 value ≥10.0 nM and <25.0 nM)”.

With `O=C1CCC(N2C(=O)c3ccc(N4CC(F)(CN5CCC(n6cc7cc(NC(=O)c8cnn9ccc(N%10C[C@H]%11C[C@@H]%10CO%11)nc89)c(OCC8CC8)cc7n6)CC5)C4)cc3C2=O)C(=O)N1` (stereo partly drawn) [Example 239], the DC50 lay in the range of 5 to 10 nM; the greatest degradation seen (Dmax) was less than 70%; the “PBMC DC90” value was “C (C represents a DC90 value ≥25.0 nM and <50 nM)”.

Take `COc1cc(N2CC(F)(CN3CCC(n4cc5cc(NC(=O)c6cnn7cccnc67)c(OCC6CC6)cc5n4)CC3)C2)cc2c1C(=O)N(C1CCC(=O)NC1=O)C2` (stereo not drawn) [Example 242]: the half-maximal degradation concentration (DC50) was in the range of 1 to 5 nM, the Dmax was 80 to 90% and the “PBMC DC90” value is “A (A represents a DC90 value <10.0 nM)”.

In the case of `COc1cc2c(cc1N1CC(F)(CN3CCC(n4cc5cc(NC(=O)c6cnn7cccnc67)c(OCC6CC6)cc5n4)CC3)C1)C(=O)N(C1CCC(=O)NC1=O)C2=O` (stereo not drawn) [Example 244], the 50% degradation concentration (DC50) was in the range of 1 to 5 nM; the Dmax was in the range of 80 to 90%; the “PBMC DC90” value was “B (B represents a DC90 value ≥10.0 nM and <25.0 nM)”.

Consider `O=C1CCC(N2C(=O)c3ccc(N4CCC5(CCC(CN6CCC(n7cc8cc(NC(=O)c9cnn%10cccnc9%10)c(OCC9CC9)cc8n7)CC6)CC5)CC4)cc3C2=O)C(=O)N1` (stereo not drawn) [Example 247], for which the DC50 lay within 1 to 5 nM; the Dmax is no less than 90%; the “PBMC DC90” value is “B (B represents a DC90 value ≥10.0 nM and <25.0 nM)”.

In the case of `C[C@H](Oc1cc2nn(C3CCN(CC4(F)CN(c5ccc6c(c5)C(=O)N(C5CCC(=O)NC5=O)C6=O)C4)CC3)cc2cc1NC(=O)c1cnn2cccnc12)C1CC1` (stereo partly drawn) [Example 264], the 50% degradation concentration (DC50) is 1 to 5 nM; the Dmax fell in the range of 70 to 80%; the “PBMC DC90” value is “B (B represents a DC90 value ≥10.0 nM and <25.0 nM)”.
